# Structures can show the parent of a compound that is named as a salt. Where two headings read alike, the source gives them in different places.
# Columns and labels:
# human SERT = human SERT (Homo sapiens (Human), UniProt P31645); assay: human SERT binding assay with [3H]-citalopram on HEK-293 membranes; conditions: read-out: hSERT binding Ki
# h5-HT6 = h5-HT6 (Homo sapiens (Human), UniProt P50406); assay: h5-HT6 binding assay with [3H]LSD on HEK-293 membranes; conditions: read-out: h5HT6 binding Ki
# Chain of h5-HT6 (P50406 whole entry): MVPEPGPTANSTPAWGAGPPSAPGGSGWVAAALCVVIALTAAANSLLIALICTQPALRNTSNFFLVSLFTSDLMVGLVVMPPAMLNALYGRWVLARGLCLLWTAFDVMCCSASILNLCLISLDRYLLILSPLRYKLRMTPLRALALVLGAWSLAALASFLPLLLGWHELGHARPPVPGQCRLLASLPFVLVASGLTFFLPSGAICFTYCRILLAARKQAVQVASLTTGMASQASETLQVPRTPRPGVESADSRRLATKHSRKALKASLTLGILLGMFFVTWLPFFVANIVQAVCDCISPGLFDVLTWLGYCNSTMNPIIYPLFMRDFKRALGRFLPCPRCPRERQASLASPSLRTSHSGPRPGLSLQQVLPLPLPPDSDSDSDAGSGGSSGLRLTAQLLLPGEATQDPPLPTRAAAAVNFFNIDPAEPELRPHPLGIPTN
# Procedure: Receptor binding was performed using membrane fractions prepared from the HEK-293 cell line recombinantly expressing rat 5-HT7 receptors (NCBI accession NM_022938). Compound affinity for the rat 5-HT7 receptor subtype was evaluated by competitive radioligand binding assays using 5-carboxamido[^3H]tryptamine ([^3H]5-CT) (Amersham Biosciences, cat. 90000403) detection. HitHunter™ cAMP assays are in-vitro based competitive immunoassays. The assay was performed on the HEK-293 cell line stably transfected with r5-HT7 receptor. Cells were pre-incubated with test compounds for 10 minutes. For antagonist testing, the cells were then challenged with 100 nM 5-CT for 20 minutes. Cells were then lysed and cAMP measured according to manufacturers protocol (Amersham, cat. NET791250UC) or [^3H]mesulergine (Amersham, cat. TRK1041). The assay was performed on membranes prepared from HEK-293 cells stably transfected with h5-HT6. Following centrifugation, membranes were resuspended and incubated for 60 min at room temperature with 1.7 nM [^3H]LSD in the presence of increasing concentration of test compounds. Nonspecific binding was defined in the presence of 10 μM clozapine (Tocris, cat. TRK1068). Homogenized HEK-293 membranes expressing the human SERT were incubated in 50 mM Tris-HCl (pH 7.5), 120 mM NaCl, 5 mM KCl with [^3H]-citalopram (3 nM) with or without test compounds. Nonspecific binding was determined in the presence of 10 μM fluoxetine. Radioactivity readouts and Ki values were performed as previously described for r5-HT7. […] Compounds were assayed in their free form or as salts, as indicated in the Examples section above.
# h5HT2A [1] = molecular target: T1, h5HT2A (Homo sapiens (Human), UniProt P28223); assay: h5HT2A binding
# T1 sequence (P28223 whole entry): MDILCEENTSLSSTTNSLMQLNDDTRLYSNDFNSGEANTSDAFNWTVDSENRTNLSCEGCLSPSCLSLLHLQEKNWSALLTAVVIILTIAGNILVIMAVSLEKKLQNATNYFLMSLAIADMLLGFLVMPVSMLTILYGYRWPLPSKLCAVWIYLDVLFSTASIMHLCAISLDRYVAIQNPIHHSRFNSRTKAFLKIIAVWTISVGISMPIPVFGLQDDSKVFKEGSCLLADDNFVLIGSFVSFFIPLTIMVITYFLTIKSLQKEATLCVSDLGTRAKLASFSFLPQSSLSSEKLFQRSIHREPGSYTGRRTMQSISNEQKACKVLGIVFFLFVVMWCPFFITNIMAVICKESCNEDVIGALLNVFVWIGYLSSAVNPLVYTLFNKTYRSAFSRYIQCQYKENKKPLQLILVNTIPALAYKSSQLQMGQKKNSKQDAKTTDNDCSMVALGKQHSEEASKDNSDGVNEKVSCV
# rat 5-HT7 receptor = rat 5-HT7 receptor (Rattus norvegicus (Rat), UniProt P32305); assay: r5-HT7 binding assay, competitive radioligand binding with [3H]5-CT
# Chain of rat 5-HT7 receptor (P32305 1-435): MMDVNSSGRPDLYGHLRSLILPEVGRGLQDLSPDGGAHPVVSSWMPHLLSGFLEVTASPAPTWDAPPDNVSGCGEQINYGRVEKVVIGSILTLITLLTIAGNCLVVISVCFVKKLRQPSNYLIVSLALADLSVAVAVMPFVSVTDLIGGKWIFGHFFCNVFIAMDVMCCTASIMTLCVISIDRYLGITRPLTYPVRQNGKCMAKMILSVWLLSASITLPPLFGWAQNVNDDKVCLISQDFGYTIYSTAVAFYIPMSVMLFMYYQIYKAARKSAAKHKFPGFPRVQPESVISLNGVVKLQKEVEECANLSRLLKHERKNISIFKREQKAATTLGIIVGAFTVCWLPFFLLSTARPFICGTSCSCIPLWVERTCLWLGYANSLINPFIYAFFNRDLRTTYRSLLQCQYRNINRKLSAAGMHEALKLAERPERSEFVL
# Outline: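 Whole r5-HT7-transfected HEK-293 cells first received test compound for 10 min. They were then exposed to 100 nM 5-CT for 20 min before lysis and competitive immunoassay of cAMP. Affinity came from displacement of [3H]5-CT on membranes of the same recombinant line, expressed as Ki.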
# h5HT2C [2] = molecular target: T2, h5HT2C (Homo sapiens (Human), UniProt P28335); assay: h5HT2C binding
# T2 sequence (P28335 33-458): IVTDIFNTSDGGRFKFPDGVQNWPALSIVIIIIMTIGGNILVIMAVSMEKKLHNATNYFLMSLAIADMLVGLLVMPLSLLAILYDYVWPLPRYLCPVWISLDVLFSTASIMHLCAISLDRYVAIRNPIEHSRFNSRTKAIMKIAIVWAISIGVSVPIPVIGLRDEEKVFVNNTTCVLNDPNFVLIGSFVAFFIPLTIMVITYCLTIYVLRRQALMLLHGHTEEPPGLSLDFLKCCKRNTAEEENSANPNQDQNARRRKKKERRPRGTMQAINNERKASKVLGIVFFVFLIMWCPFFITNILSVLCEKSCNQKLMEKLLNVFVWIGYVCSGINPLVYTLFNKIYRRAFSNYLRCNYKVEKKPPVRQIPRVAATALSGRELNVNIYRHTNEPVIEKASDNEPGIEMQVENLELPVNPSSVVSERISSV
# h5HT2B [3] = molecular target: T3, h5HT2B (Homo sapiens (Human), UniProt P41595); assay: h5HT2B binding
# T3 sequence (P41595 whole entry): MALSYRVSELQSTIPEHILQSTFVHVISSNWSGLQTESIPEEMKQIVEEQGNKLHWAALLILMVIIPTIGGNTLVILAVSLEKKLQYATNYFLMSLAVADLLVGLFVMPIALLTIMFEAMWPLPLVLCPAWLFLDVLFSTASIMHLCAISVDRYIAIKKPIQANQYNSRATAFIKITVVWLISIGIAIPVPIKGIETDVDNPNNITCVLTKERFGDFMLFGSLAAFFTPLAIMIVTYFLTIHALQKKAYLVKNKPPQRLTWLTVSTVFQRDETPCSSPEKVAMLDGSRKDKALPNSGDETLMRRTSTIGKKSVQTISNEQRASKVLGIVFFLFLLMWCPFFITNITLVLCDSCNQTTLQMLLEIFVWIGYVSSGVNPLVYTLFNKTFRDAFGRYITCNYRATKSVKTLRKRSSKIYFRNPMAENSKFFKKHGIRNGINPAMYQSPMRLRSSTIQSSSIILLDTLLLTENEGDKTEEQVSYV
# h5HT2C [4] = molecular target: T2, h5HT2C; assay: h5HT2C binding; remark: listed apart in the source
# h5HT2B [5] = molecular target: T3, h5HT2B; assay: h5HT2B binding; remark: listed apart in the source
# h5HT2A [6] = molecular target: T1, h5HT2A; assay: h5HT2A binding; remark: listed apart in the source
# r5-HT7 receptor = r5-HT7 receptor (Rattus norvegicus (Rat), UniProt P32305); assay: HitHunter cAMP assay, antagonist testing against 100 nM 5-CT; type: cell-based; conditions: antagonist testing, 100 nM 5-CT challenge, HEK-293 r5-HT7; read-out: R5HT7 cAMP pKb (converted)
# Chain of r5-HT7 receptor (P32305 1-435): as the sequence (P32305 1-435) above
# Outline: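 For antagonism, cells expressing the rat receptor are pretreated with compound (10 min) and stimulated with 100 nM 5-CT (20 min). Lysates are assayed for cAMP by competitive immunoassay. Binding uses [3H]5-CT competition on HEK-293 membranes, giving Ki.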
# [7] = h5-HT6, [3H]LSD, HEK-293 membranes
# [8] = rat 5-HT7 receptor, HEK-293 membranes
# Chain of human SERT (P31645 whole entry): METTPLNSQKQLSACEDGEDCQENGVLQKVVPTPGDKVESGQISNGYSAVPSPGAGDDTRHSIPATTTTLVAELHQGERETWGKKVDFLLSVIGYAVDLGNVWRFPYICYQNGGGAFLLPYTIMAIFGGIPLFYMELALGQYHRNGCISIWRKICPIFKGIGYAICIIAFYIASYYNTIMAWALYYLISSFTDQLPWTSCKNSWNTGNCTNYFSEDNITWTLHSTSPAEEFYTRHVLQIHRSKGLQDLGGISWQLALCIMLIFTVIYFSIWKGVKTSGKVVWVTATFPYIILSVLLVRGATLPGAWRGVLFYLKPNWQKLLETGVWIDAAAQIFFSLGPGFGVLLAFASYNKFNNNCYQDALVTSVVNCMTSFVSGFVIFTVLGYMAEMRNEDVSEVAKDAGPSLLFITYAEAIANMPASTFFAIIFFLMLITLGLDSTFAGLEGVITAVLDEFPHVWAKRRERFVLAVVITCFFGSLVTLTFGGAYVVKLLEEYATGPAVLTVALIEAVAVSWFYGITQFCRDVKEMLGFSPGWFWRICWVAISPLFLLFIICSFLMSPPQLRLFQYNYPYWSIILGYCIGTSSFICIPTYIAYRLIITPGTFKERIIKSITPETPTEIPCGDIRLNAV
smiles,measurement,setting,value
"Clc1cccc(CCOc2ccc(Cl)cc2OC2CNC2)c1 [Example 185, 3-[5-Chloro-2-[2-(3-chloro-phenyl)-ethoxy]-phenoxy]-azetidine]",Ki,human SERT,0.029 µM
same,Ki,h5-HT6; [7],0.177 µM
same,Ki,h5HT2A [1],0.008 µM
same,Ki,rat 5-HT7 receptor; [8],0.006 µM
same,Ki,h5HT2C [2],0.091 µM
same,Ki,h5HT2B [3],0.007 µM
"C[C@@H](Oc1ccc(Cl)cc1OC1CCNCC1)c1cccc(C(F)(F)F)c1 [Example 135, (R)-4-[5-Chloro-2-[1-(3-trifluoromethyl-phenyl)-ethoxy]-phenoxy]-piperidine]",Ki,human SERT,0.096 µM
same,Ki,h5-HT6; [7],1.28 µM
same,Ki,h5HT2A [1],0.14 µM
same,Ki,rat 5-HT7 receptor; [8],0.015 µM
same,Ki,h5HT2C [2],0.755 µM
same,Ki,h5HT2B [3],0.027 µM
"C[C@@H](Oc1ccc(Br)cc1OC1CNC1)c1cccc(C(F)(F)F)c1 [Example 113, (R)-3-[5-Bromo-2-[1-(3-trifluoromethyl-phenyl)-ethoxy]-phenoxy]-azetidine]",Ki,h5-HT6; [7],0.496 µM
same,Ki,h5HT2A [1],0.206 µM
same,Ki,rat 5-HT7 receptor; [8],0.011 µM
same,Ki,h5HT2C [2],0.49 µM
same,Ki,h5HT2B [3],0.122 µM
"Cc1ccc(Oc2cc(Cl)ccc2O[C@@H]2CCN(C)C2)cc1 [Example 268, (R)-3-(4-Chloro-2-p-tolyloxy-phenoxy)-1-methyl-pyrrolidine]",Ki,h5HT2C [4],0.38 µM
same,Ki,h5HT2B [5],0.13 µM
same,Ki,h5HT2A [6],0.15 µM
same,Ki,"rat 5-HT7 receptor; rat 5-HT7, HEK-293 membranes",0.82 µM
"Clc1cccc(Oc2cc(Cl)ccc2O[C@H]2CCNC2)c1 [Example 276, (S)-3-[4-Chloro-2-(3-chloro-phenoxy)-phenoxy]-pyrrolidine]",Ki,h5HT2C [4],0.12 µM
same,Ki,h5HT2B [5],0.19 µM
same,Ki,h5HT2A [6],0.084 µM
same,Ki,"rat 5-HT7 receptor; rat 5-HT7, HEK-293 membranes",> 10 µM
"COc1ccc2c(c1)CC(Oc1ccc(Cl)cc1OC1CNC1)C2 (stereo not drawn) [Example 177, 3-[5-Chloro-2-(5-methoxy-indan-2-yloxy)-phenoxy]-azetidine]",Ki,human SERT,0.262 µM
same,Ki,h5-HT6; [7],0.123 µM
same,Ki,h5HT2A [1],0.035 µM
same,Ki,rat 5-HT7 receptor; [8],0.012 µM
same,Ki,h5HT2C [2],0.14 µM
same,Ki,h5HT2B [3],0.056 µM
"Cc1cccc(Oc2cc(Cl)ccc2O[C@H]2CCNC2)c1 [Example 273, (S)-3-(4-Chloro-2-m-tolyloxy-phenoxy)-pyrrolidine]",Ki,h5HT2C [4],0.15 µM
same,Ki,h5HT2B [5],0.16 µM
same,Ki,h5HT2A [6],0.082 µM
same,Ki,"rat 5-HT7 receptor; rat 5-HT7, HEK-293 membranes",> 5 µM
"CN1CC[C@@H](Oc2ccc(Cl)cc2Oc2ccc(F)cc2)C1 [Example 271, (R)-3-[4-Chloro-2-(4-fluoro-phenoxy)-phenoxy]-1-methyl-pyrrolidine]",Ki,h5HT2C [4],0.35 µM
same,Ki,h5HT2B [5],0.098 µM
same,Ki,h5HT2A [6],0.078 µM
same,Ki,"rat 5-HT7 receptor; rat 5-HT7, HEK-293 membranes",0.66 µM
"Clc1ccc(OC2CN(c3ccccc3)C2)c(OC2CNC2)c1 [Example 222, 3-[5-Chloro-2-(1-phenyl-azetidin-3-ol)-phenoxy]-azetidine]",Ki,human SERT,2.11 µM
same,Ki,h5HT2C [4],1.01 µM
same,Ki,"rat 5-HT7 receptor; rat 5-HT7, HEK-293 membranes",0.018 µM
"Cc1ccc(Oc2cc(Cl)ccc2O[C@H]2CCNC2)cc1 [Example 266, (S)-3-(4-Chloro-2-p-tolyloxy-phenoxy)-pyrrolidine]",Ki,h5HT2C [4],0.23 µM
same,Ki,h5HT2B [5],0.13 µM
same,Ki,h5HT2A [6],0.15 µM
same,Ki,"rat 5-HT7 receptor; rat 5-HT7, HEK-293 membranes",> 10 µM
"FC(F)(F)c1ccc(COc2ccc(Br)cc2OC2CNC2)o1 [Example 10, 3-[5-Bromo-2-(5-trifluoromethyl-furan-2-ylmethoxy)-phenoxy]-azetidine]",Ki,human SERT,0.039 µM
same,Ki,h5-HT6; [7],0.05 µM
same,Kb,r5-HT7 receptor,0.00631 µM
same,Ki,rat 5-HT7 receptor; [8],0.007 µM
Clc1ccc(OCCc2ccccc2)c(OC2CNC2)c1 [Example 186],Ki,human SERT,0.053 µM
same,Ki,h5-HT6; [7],0.033 µM
same,Ki,h5HT2A [1],0.014 µM
same,Ki,rat 5-HT7 receptor; [8],0.005 µM
same,Ki,h5HT2C [2],0.079 µM
same,Ki,h5HT2B [3],0.008 µM
"CC(Oc1ccc(Cl)cc1OC1CNC1)c1cccc(C(F)(F)F)c1 (stereo in doubt) [Example 101, (S)-3-[5-Chloro-2-[1-(3-trifluoromethyl-phenyl)-ethoxy]-phenoxy]-azetidine]",Ki,human SERT,0.152 µM
same,Ki,h5-HT6; [7],0.746 µM
same,Ki,h5HT2A [1],0.317 µM
same,Ki,rat 5-HT7 receptor; [8],0.005 µM
same,Ki,h5HT2C [2],0.933 µM
same,Ki,h5HT2B [3],0.203 µM
"C[C@@H]1NC[C@H]1Oc1cc(Br)ccc1OCc1cccc(F)c1 (racemic) [Example 219, (±)-trans-3-[5-Bromo-2-(3-fluoro-benzyloxy)-phenoxy]-2-methyl-azetidine]",Ki,human SERT,0.068 µM
same,Ki,h5HT2C [4],0.031 µM
same,Ki,"rat 5-HT7 receptor; rat 5-HT7, HEK-293 membranes",0.009 µM
"Brc1ccc(Oc2ccccc2)c(OC2CNC2)c1 [Example 244, 3-(5-Bromo-2-phenoxy-phenoxy)-azetidine]",Ki,human SERT,5 µM
same,Ki,"h5-HT6; h5-HT6, HEK-293 membranes, [3H]LSD",0.046 µM
same,Kb,r5-HT7 receptor,0.251 µM
same,Ki,"rat 5-HT7 receptor; rat 5-HT7, HEK-293 membranes",0.02 µM
"Cc1cc(Oc2cc(Cl)ccc2O[C@H]2CCNC2)ccc1F [Example 274, (S)-3-[4-Chloro-2-(4-fluoro-3-methyl-phenoxy)-phenoxy]-pyrrolidine]",Ki,h5HT2C [4],0.23 µM
same,Ki,h5HT2B [5],0.17 µM
same,Ki,h5HT2A [6],0.1 µM
same,Ki,"rat 5-HT7 receptor; rat 5-HT7, HEK-293 membranes",8.6 µM
"Clc1cccc(COc2ccc(Br)cc2OC2CNC2)c1 [Example 2, 3-[5-Bromo-2-(3-chloro-benzyloxy)-phenoxy]-azetidine]",Ki,human SERT,0.001 µM
same,Ki,h5-HT6; [7],0.047 µM
same,Ki,h5HT2A [1],0.042 µM
same,Kb,r5-HT7 receptor,0.0316 µM
same,Ki,rat 5-HT7 receptor; [8],0.012 µM
same,Ki,h5HT2C [2],0.76 µM
same,Ki,h5HT2B [3],0.074 µM
"Clc1cccc(COc2ccc(Br)cc2OC2CCNCC2)c1 [Example 65, 4-[5-Bromo-2-(3-chloro-benzyloxy)-phenoxy]-piperidine]",Ki,human SERT,0.014 µM
same,Ki,h5-HT6; [7],0.041 µM
same,Kb,r5-HT7 receptor,0.126 µM
same,Ki,rat 5-HT7 receptor; [8],0.011 µM
"Clc1ccccc1COc1ccc(Br)cc1OC1CNC1 [Example 15, 3-[5-Bromo-2-(2-chloro-benzyloxy)-phenoxy]-azetidine trifluoroacetate]",Ki,human SERT,0.005 µM
same,Ki,h5-HT6; [7],0.045 µM
same,Kb,r5-HT7 receptor,0.631 µM
same,Ki,rat 5-HT7 receptor; [8],0.017 µM
"Clc1cccc(COc2ccc(Cl)cc2OC2CNC2)c1 [Example 37, 3-[5-Chloro-2-(3-chloro-benzyloxy)-phenoxy]-azetidine]",Ki,human SERT,0.007 µM
same,Ki,h5-HT6; [7],0.089 µM
same,Kb,r5-HT7 receptor,0.126 µM
same,Ki,rat 5-HT7 receptor; [8],0.008 µM
"Fc1cccc(COc2ccc(Br)cc2OC2CNC2)c1 [Example 17, 3-[5-Bromo-2-(3-fluoro-benzyloxy)-phenoxy]-azetidine trifluroacetate]",Ki,human SERT,0.004 µM
same,Ki,h5-HT6; [7],0.039 µM
same,Kb,r5-HT7 receptor,0.0501 µM
same,Ki,rat 5-HT7 receptor; [8],0.01 µM
"Clc1ccc(O[C@H]2CCNC2)c(Oc2ccc(Br)cc2)c1 [Example 277, (S)-3-[2-(4-Bromo-phenoxy)-4-chloro-phenoxy]-pyrrolidine]",Ki,h5HT2C [4],0.12 µM
same,Ki,h5HT2B [5],0.27 µM
same,Ki,h5HT2A [6],0.41 µM
same,Ki,"rat 5-HT7 receptor; rat 5-HT7, HEK-293 membranes",5.5 µM
"CC(C)c1ccc(Oc2cc(Cl)ccc2O[C@H]2CCNC2)cc1 [Example 278, (S)-3-[4-Chloro-2-(4-isopropyl-phenoxy)-phenoxy]-pyrrolidine]",Ki,h5HT2C [4],0.33 µM
same,Ki,h5HT2B [5],1.3 µM
same,Ki,h5HT2A [6],1.4 µM
same,Ki,"rat 5-HT7 receptor; rat 5-HT7, HEK-293 membranes",> 10 µM
"Brc1ccc(OCCc2ccccc2)c(OC2CNC2)c1 [Example 195, 3-(5-Bromo-2-phenethyloxy-phenoxy)-azetidine]",Ki,human SERT,0.06 µM
same,Ki,h5-HT6; [7],0.027 µM
same,Ki,h5HT2A [1],0.01 µM
same,Ki,rat 5-HT7 receptor; [8],0.002 µM
same,Ki,h5HT2C [2],0.042 µM
same,Ki,h5HT2B [3],0.004 µM
"CC(Oc1ccc(Br)cc1OC1CNC1)c1cccc(Cl)c1 (racemic) [Example 111, (±)-3-[5-Bromo-2-[1-(3-chloro-phenyl)-ethoxy]-phenoxy]-azetidine]",Ki,human SERT,0.118 µM
same,Ki,h5-HT6; [7],0.268 µM
same,Ki,h5HT2A [1],0.073 µM
same,Ki,rat 5-HT7 receptor; [8],0.01 µM
same,Ki,h5HT2C [2],0.331 µM
same,Ki,h5HT2B [3],0.069 µM
"CN1CC(Oc2cc(Cl)ccc2OCc2cccc(Cl)c2)C1 [Example 38, 3-[5-Chloro-2-(3-chloro-benzyloxy)-phenoxy]-1-methyl-azetidine]",Ki,human SERT,0.1 µM
same,Ki,h5-HT6; [7],0.036 µM
same,Kb,r5-HT7 receptor,0.01 µM
same,Ki,rat 5-HT7 receptor; [8],0.006 µM
